Values quoted from earlier work as cited in patent US9717795B2, “HPPH lyophilized powder injection for injection and preparation method thereof” (ZHEJIANG HISUN PHARMACEUTICAL CO., LTD, priority 2013, dated 2017).

Substance: HPPH
- solubility in water: poor solubility in water
